Source: PubChem BioAssay AID2060485 (Molecular Pharmacology Branch, DTP, NCI, 2025)
pIC50: −log10 of the molar value.

Tested on: A375 multi-cell spheroids with HUVEC/MSC, viability
Experiment: Anticancer human tumor A375 cell line growth inhibition [GQUAD];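 also: spheroids exposed to compounds for seven days before readout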
Conditions: for pIC50: curve of first compound; for viability, T/C: stronger effect = lower value; active = viability on the fitted dose curve at most 10% of control; inactive = the rest
Method in brief: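 Tumor cells were grown as complex spheroids with HUVEC endothelial cells and mesenchymal stem cells as stroma. G-quadruplex stabilizers were combined with targeted agents over half-log dilutions from near the clinical Cmax, or from 10 microM.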

[1] = second compound 0.0316 µM, first compound 0.0316 µM
[2] = second compound 0.0316 µM, first compound 0.1 µM
[3] = second compound 0.0316 µM, first compound 0.316 µM
[4] = second compound 0.0316 µM, first compound 1 µM
[5] = second compound 0.0316 µM, first compound 3.16 µM
[6] = second compound 0.0316 µM, first compound 10 µM
[7] = second compound 0.1 µM, first compound 0.0316 µM
[8] = second compound 0.1 µM, first compound 0.1 µM
[9] = second compound 0.1 µM, first compound 0.316 µM
[10] = second compound 0.1 µM, first compound 1 µM
[11] = second compound 0.1 µM, first compound 3.16 µM
[12] = second compound 0.1 µM, first compound 10 µM
[13] = second compound 0.316 µM, first compound 0.0316 µM
[14] = second compound 0.316 µM, first compound 0.1 µM
[15] = second compound 0.316 µM, first compound 0.316 µM
[16] = second compound 0.316 µM, first compound 1 µM
[17] = second compound 0.316 µM, first compound 3.16 µM
[18] = second compound 0.316 µM, first compound 10 µM
[19] = second compound 1 µM, first compound 0.0316 µM
[20] = second compound 1 µM, first compound 0.1 µM
[21] = second compound 1 µM, first compound 0.316 µM
[22] = second compound 1 µM, first compound 1 µM
[23] = second compound 1 µM, first compound 3.16 µM
[24] = second compound 1 µM, first compound 10 µM
[25] = second compound 3.16 µM, first compound 0.0316 µM
[26] = second compound 3.16 µM, first compound 0.1 µM
[27] = second compound 3.16 µM, first compound 0.316 µM
[28] = second compound 3.16 µM, first compound 1 µM
[29] = second compound 3.16 µM, first compound 3.16 µM
[30] = second compound 3.16 µM, first compound 10 µM
[31] = second compound 10 µM, first compound 0.0316 µM
[32] = second compound 10 µM, first compound 0.1 µM
[33] = second compound 10 µM, first compound 0.316 µM
[34] = second compound 10 µM, first compound 1 µM
[35] = second compound 10 µM, first compound 3.16 µM
[36] = second compound 10 µM, first compound 10 µM

C#Cc1c(F)ccc2cc(O)cc(-c3ncc4c(N5CC6CCC(C5)N6)nc(OCC56CCCN5CC(F)C6)nc4c3F)c12 (stereo unspecified) + Cc1[nH]c2ccc(F)cc2c1-c1nc2c3cccnc3c3ncccc3c2[nH]1
inactive: viability, T/C [1] 102% | viability, T/C [2] 99.5% | viability, T/C [3] 97.1% | viability, T/C [4] 107% | viability, T/C [5] 97.2% | viability, T/C [6] 97.1% | viability, T/C [7] 104% | viability, T/C [8] 104% | viability, T/C [9] 99.4% | viability, T/C [10] 102% | viability, T/C [11] 101% | viability, T/C [12] 102% | viability, T/C [13] 105% | viability, T/C [14] 104% | viability, T/C [15] 96.7% | viability, T/C [16] 101% | viability, T/C [17] 101% | viability, T/C [18] 101% | viability, T/C [19] 113% | viability, T/C [20] 104% | viability, T/C [21] 94.2% | viability, T/C [22] 97.2% | viability, T/C [23] 105% | viability, T/C [24] 103% | viability, T/C [25] 81.8% | viability, T/C [26] 71.6% | viability, T/C [27] 74.2% | viability, T/C [28] 84.7% | viability, T/C [29] 62.3% | viability, T/C [30] 35.6% | viability, T/C [31] 86.5% | viability, T/C [32] 86.9% | viability, T/C [33] 94.4% | viability, T/C [34] 79.8% | viability, T/C [35] 78% | viability, T/C [36] 61.8%
< 5.00: pIC50 (second compound 0.0316 µM) | pIC50 (second compound 0.1 µM) | pIC50 (second compound 0.316 µM) | pIC50 (second compound 1 µM) | pIC50 (second compound 10 µM)
5.27: pIC50 (second compound 3.16 µM)

CC(=O)O[C@H]1C(=O)[C@@]2(C)[C@H]([C@H](OC(=O)c3ccccc3)[C@]3(O)C[C@H](OC(=O)[C@H](O)[C@@H](NC(=O)c4ccccc4)c4ccccc4)C(C)=C1C3(C)C)[C@]1(OC(C)=O)CO[C@@H]1C[C@@H]2O + Cc1[nH]c2ccc(F)cc2c1-c1nc2c3cccnc3c3ncccc3c2[nH]1
inactive: viability, T/C [1] 67.1% | viability, T/C [2] 16.8% | viability, T/C [7] 73.9% | viability, T/C [8] 19.3% | viability, T/C [9] 10.3% | viability, T/C [10] 11.5% | viability, T/C [11] 7.58% | viability, T/C [12] 12.6% | viability, T/C [13] 72.2% | viability, T/C [14] 21.9% | viability, T/C [15] 11.6% | viability, T/C [16] 11.8% | viability, T/C [17] 10.5% | viability, T/C [18] 13.2% | viability, T/C [19] 68.5% | viability, T/C [20] 23.8% | viability, T/C [21] 14.5% | viability, T/C [22] 13.7% | viability, T/C [23] 13.9% | viability, T/C [24] 17.3% | viability, T/C [25] 25.6% | viability, T/C [26] 16% | viability, T/C [27] 15% | viability, T/C [28] 19.8% | viability, T/C [29] 14.5% | viability, T/C [30] 12.9% | viability, T/C [31] 33.6% | viability, T/C [32] 22.9% | viability, T/C [33] 18.8% | viability, T/C [34] 18.8% | viability, T/C [35] 17.9% | viability, T/C [36] 18.8%
active: viability, T/C [3] 9.66% | viability, T/C [4] 8.81% | viability, T/C [5] 9.39% | viability, T/C [6] 10.1%
7.28: pIC50 (second compound 0.1 µM) | pIC50 (second compound 0.316 µM)
> 7.50: pIC50 (second compound 3.16 µM) | pIC50 (second compound 10 µM)
7.29: pIC50 (second compound 1 µM)
7.33: pIC50 (second compound 0.0316 µM)

CC[C@@]1(O)C(=O)OCc2c1cc1n(c2=O)Cc2cc3c(CN(C)C)c(O)ccc3nc2-1 + Cc1[nH]c2ccc(F)cc2c1-c1nc2c3cccnc3c3ncccc3c2[nH]1
7.27: pIC50 (second compound 0.1 µM)
inactive: viability, T/C (second compound 0.0316 µM, first compound 0.000999 µM) 109% | viability, T/C (second compound 0.0316 µM, first compound 0.00316 µM) 110% | viability, T/C (second compound 0.0316 µM, first compound 0.00999 µM) 109% | viability, T/C [1] 71.6% | viability, T/C (second compound 0.0316 µM, first compound 0.0999 µM) 23.4% | viability, T/C [3] 12.9% | viability, T/C (second compound 0.1 µM, first compound 0.000999 µM) 98.5% | viability, T/C (second compound 0.1 µM, first compound 0.00316 µM) 105% | viability, T/C (second compound 0.1 µM, first compound 0.00999 µM) 111% | viability, T/C [7] 73.3% | viability, T/C (second compound 0.1 µM, first compound 0.0999 µM) 23.7% | viability, T/C [9] 14% | viability, T/C (second compound 0.316 µM, first compound 0.000999 µM) 109% | viability, T/C (second compound 0.316 µM, first compound 0.00316 µM) 108% | viability, T/C (second compound 0.316 µM, first compound 0.00999 µM) 114% | viability, T/C [13] 69.9% | viability, T/C (second compound 0.316 µM, first compound 0.0999 µM) 25.9% | viability, T/C [15] 13.6% | viability, T/C (second compound 1 µM, first compound 0.000999 µM) 118% | viability, T/C (second compound 1 µM, first compound 0.00316 µM) 107% | viability, T/C (second compound 1 µM, first compound 0.00999 µM) 125% | viability, T/C [19] 65.4% | viability, T/C (second compound 1 µM, first compound 0.0999 µM) 27.4% | viability, T/C [21] 13.8% | viability, T/C (second compound 3.16 µM, first compound 0.000999 µM) 92.7% | viability, T/C (second compound 3.16 µM, first compound 0.00316 µM) 88.1% | viability, T/C (second compound 3.16 µM, first compound 0.00999 µM) 86.4% | viability, T/C [25] 51.6% | viability, T/C (second compound 3.16 µM, first compound 0.0999 µM) 30.7% | viability, T/C [27] 16.3% | viability, T/C (second compound 10 µM, first compound 0.000999 µM) 92.2% | viability, T/C (second compound 10 µM, first compound 0.00316 µM) 101% | viability, T/C (second compound 10 µM, first compound 0.00999 µM) 105% | viability, T/C [31] 62.9% | viability, T/C (second compound 10 µM, first compound 0.0999 µM) 26.1% | viability, T/C [33] 14.6%
7.34: pIC50 (second compound 10 µM)
7.42: pIC50 (second compound 3.16 µM)
7.33: pIC50 (second compound 1 µM)
7.28: pIC50 (second compound 0.0316 µM) | pIC50 (second compound 0.316 µM)
